Several values for one entry are separate records, joined by “and”; a condition that tells them apart may be missing. Equal entries are not always repeated. Toxic doses and inconclusive results are not listed.
Tested on: P388 leukemia ip, CD2F1 mice, survival T/C
Assay: NCI In Vivo Anticancer Drug Screen. Data for tumor model P388 Leukemia (intraperitoneal) in CD2F1 (CDF1) mice
Conditions: endpoint: median survival time, higher = longer survival
In short: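 Mice carrying the transplanted tumor received test compound or vehicle. Survival was recorded in each group, and the value is the treated-group measurement divided by that of the vehicle-treated control group.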

[1] = dose: 50.0 mg/kg/injection, schedule: Q01DX009 (ip), vehicle: saline with Tween-80
[2] = dose: 100.0 mg/kg/injection, schedule: Q01DX009 (ip), vehicle: saline with Tween-80
[3] = dose: 200.0 mg/kg/injection, schedule: Q01DX009 (ip), vehicle: saline with Tween-80
[4] = dose: 50.0 mg/kg/injection, schedule: Q01DX009 (ip), vehicle: Klucel (hydroxypropylcellulose) (HPC)
[5] = dose: 50.0 mg/kg/injection, schedule: Q01DX005 (ip), vehicle: Klucel (hydroxypropylcellulose) (HPC)
[6] = dose: 100.0 mg/kg/injection, schedule: Q01DX005 (ip), vehicle: Klucel (hydroxypropylcellulose) (HPC)
[7] = dose: 200.0 mg/kg/injection, schedule: Q01DX005 (ip), vehicle: Klucel (hydroxypropylcellulose) (HPC)
[8] = dose: 12.5 mg/kg/injection, schedule: Q01DX009 (ip), vehicle: saline with Tween-80
[9] = dose: 25.0 mg/kg/injection, schedule: Q01DX009 (ip), vehicle: saline with Tween-80
[10] = dose: 100.0 mg/kg/injection, schedule: Q01DX001 (ip), vehicle: saline with Tween-80
[11] = dose: 200.0 mg/kg/injection, schedule: Q01DX001 (ip), vehicle: saline with Tween-80
[12] = dose: 400.0 mg/kg/injection, schedule: Q01DX001 (ip), vehicle: saline with Tween-80
[13] = dose: 50.0 mg/kg/injection, schedule: Q01DX005 (ip), vehicle: saline with Tween-80
[14] = dose: 100.0 mg/kg/injection, schedule: Q01DX005 (ip), vehicle: saline with Tween-80
[15] = dose: 200.0 mg/kg/injection, schedule: Q01DX005 (ip), vehicle: saline with Tween-80

Structure (SMILES): CC(=O)Oc1ccc(OCc2ccccc2)c(OCc2ccccc2)c1
- T/C [1]: 102 % of control
- T/C [2]: 99 % of control
- T/C [3]: 107 % of control

Structure (SMILES): CC1=C(C)C(=O)O[C@@H]([C@](C)(O)[C@]2(O)CC[C@@]3(O)[C@@H]4C[C@H]5O[C@]56CC=CC(=O)[C@]6(C)[C@H]4CC[C@]23C)C1
- T/C (dose: 12.5 mg/kg/injection, schedule: Q01DX009 (ip), vehicle: Klucel (hydroxypropylcellulose) (HPC)): 109 % of control and 110 % of control
- T/C (dose: 12.5 mg/kg/injection, schedule: Q04DX003 (ip), vehicle: Klucel (hydroxypropylcellulose) (HPC)): 122 % of control
- T/C (dose: 25.0 mg/kg/injection, schedule: Q01DX009 (ip), vehicle: Klucel (hydroxypropylcellulose) (HPC)): 107 % of control and 124 % of control
- T/C [4]: 100 % of control
- T/C (dose: 50.0 mg/kg/injection, schedule: Q04DX003 (ip), vehicle: Klucel (hydroxypropylcellulose) (HPC)): 124 % of control

Structure (SMILES): N=C(N)c1ccc(N=Nc2c(O)ccc3cc4c(N=Nc5ccc(C(=N)N)cc5)c(O)ccc4cc23)cc1
- T/C [5]: 110 % of control
- T/C [6]: 111 % of control
- T/C [7]: 110 % of control

Structure (SMILES): C[N+](C)(C)N=P(O)(N[N+](C)(C)C)c1ccccc1 (stereo unspecified)
- T/C (dose: 60.0 mg/kg/injection, schedule: Q01DX005 (ip), vehicle: saline): 104 % of control
- T/C (dose: 120.0 mg/kg/injection, schedule: Q01DX005 (ip), vehicle: saline): 104 % of control
- T/C (dose: 240.0 mg/kg/injection, schedule: Q01DX005 (ip), vehicle: saline): 103 % of control

Structure (SMILES): COc1c(C#N)c2c(c(OC)c1OC)-c1ccc(OC)c(=O)cc1[C@@H](NC(C)=O)CC2
- T/C (dose: 3.12 mg/kg/injection, schedule: Q01DX009 (ip), vehicle: Klucel (hydroxypropylcellulose) (HPC)): 113 % of control

Structure (SMILES): O=C(O)c1c[nH]c2cc(O)ccc2c1=O
- T/C [8]: 98 % of control
- T/C [9]: 96 % of control
- T/C [1]: 103 % of control
- T/C (dose: 50.0 mg/kg/injection, schedule: Q01DX009 (ip), vehicle: saline): 103 % of control
- T/C (dose: 100.0 mg/kg/injection, schedule: Q01DX009 (ip), vehicle: saline): 101 % of control
- T/C (dose: 200.0 mg/kg/injection, schedule: Q01DX009 (ip), vehicle: saline): 95 % of control

Structure (SMILES): Cc1ccc(NN=O)nc1
- T/C (dose: 6.25 mg/kg/injection, schedule: Q01DX009 (ip), vehicle: water): 151 % of control and 152 % of control
- T/C (dose: 12.5 mg/kg/injection, schedule: Q01DX009 (ip), vehicle: water): 153 % of control and 183 % of control

Structure (SMILES): CCCCCCCCC#CC(=O)OC
- T/C [1]: 97 % of control
- T/C [2]: 92 % of control
- T/C [3]: 97 % of control

Structure (SMILES): CC1(O)C2C3C(I)C4C5C3C1C5C42 (stereo unspecified)
- T/C (dose: 100.0 mg/kg/injection, schedule: Q01DX001 (ip), vehicle: Klucel (hydroxypropylcellulose) (HPC)): 92 % of control
- T/C (dose: 200.0 mg/kg/injection, schedule: Q01DX001 (ip), vehicle: Klucel (hydroxypropylcellulose) (HPC)): 88 % of control
- T/C (dose: 400.0 mg/kg/injection, schedule: Q01DX001 (ip), vehicle: Klucel (hydroxypropylcellulose) (HPC)): 87 % of control

Structure (SMILES): CCOC(=O)Nc1ccc(OCC)cc1
- T/C (dose: 100.0 mg/kg/injection, schedule: Q04DX003 (ip), vehicle: Klucel (hydroxypropylcellulose) (HPC)): 107 % of control
- T/C (dose: 200.0 mg/kg/injection, schedule: Q04DX003 (ip), vehicle: Klucel (hydroxypropylcellulose) (HPC)): 100 % of control
- T/C (dose: 400.0 mg/kg/injection, schedule: Q04DX003 (ip), vehicle: Klucel (hydroxypropylcellulose) (HPC)): 92 % of control

Structure (SMILES): COc1ccc(C(C)c2cc(C(C)(C)C)cc(C(C)(C)C)c2O)cc1 (stereo unspecified)
- T/C (dose: 50.0 mg/kg/injection, schedule: Q01DX005 (ip), vehicle: distilled water + alcohol): 100 % of control
- T/C (dose: 100.0 mg/kg/injection, schedule: Q01DX005 (ip), vehicle: distilled water + alcohol): 96 % of control
- T/C (dose: 200.0 mg/kg/injection, schedule: Q01DX005 (ip), vehicle: distilled water + alcohol): 94 % of control

Structure (SMILES): COc1ccc2[nH]cc(/C=C(/C)c3ccncc3)c2c1
- T/C [10]: 102 % of control
- T/C [11]: 108 % of control
- T/C [12]: 108 % of control

Structure (SMILES): CC1=C/C(=N/N=c2\ccn(O)cc2C)C=CC1=N
- T/C (dose: 3.13 mg/kg/injection, schedule: Q01DX009 (ip), vehicle: saline with Tween-80): 100 % of control
- T/C (dose: 6.25 mg/kg/injection, schedule: Q01DX009 (ip), vehicle: saline with Tween-80): 95 % of control
- T/C [8]: 104 % of control
- T/C [9]: 98 % of control

Structure (SMILES): CC(=O)n1c(Cl)c(/C=N/NC(N)=S)c2ccccc21
- T/C [10]: 86 % of control
- T/C [11]: 94 % of control
- T/C [12]: 100 % of control

Structure (SMILES): CN(O)C(=O)CN
- T/C [13]: 102 % of control
- T/C [14]: 102 % of control
- T/C [15]: 98 % of control
- T/C (dose: 400.0 mg/kg/injection, schedule: Q01DX005 (ip), vehicle: saline with Tween-80): 100 % of control

Structure (SMILES): c1ccc2c(C3N4CCCN3CC4)c[nH]c2c1 (stereo unspecified)
- T/C [9]: 103 % of control and 104 % of control and 119 % of control
- T/C [1]: 98 % of control and 106 % of control and 118 % of control
- T/C [2]: 103 % of control and 114 % of control and 122 % of control
- T/C [3]: 105 % of control and 95 % of control

Structure (SMILES): CCCCCCCC(Nc1nncs1)Nc1nncs1
- T/C (dose: 15.0 mg/kg/injection, schedule: Q01DX005 (ip), vehicle: saline with Tween-80): 101 % of control
- T/C (dose: 30.0 mg/kg/injection, schedule: Q01DX005 (ip), vehicle: saline with Tween-80): 92 % of control
- T/C (dose: 60.0 mg/kg/injection, schedule: Q01DX005 (ip), vehicle: saline with Tween-80): 87 % of control and 90 % of control
- T/C (dose: 240.0 mg/kg/injection, schedule: Q01DX005 (ip), vehicle: saline with Tween-80): 91 % of control

Structure (SMILES): CC1OC=CC(OC2OC(CO)C(O)C(O)C2O)C1O (stereo unspecified)
- T/C (dose: 21.25 mg/kg/injection, schedule: Q01DX005 (ip), vehicle: saline): 109 % of control
- T/C (dose: 42.5 mg/kg/injection, schedule: Q01DX005 (ip), vehicle: saline): 116 % of control
- T/C (dose: 85.0 mg/kg/injection, schedule: Q01DX005 (ip), vehicle: saline): 108 % of control
- T/C (dose: 170.0 mg/kg/injection, schedule: Q01DX005 (ip), vehicle: saline): 101 % of control

Structure (SMILES): N#CC1OC1c1cccnc1 (stereo unspecified)
- T/C (dose: 12.5 mg/kg/injection, schedule: Q01DX005 (ip), vehicle: saline with Tween-80): 105 % of control and 111 % of control
- T/C (dose: 25.0 mg/kg/injection, schedule: Q01DX005 (ip), vehicle: saline with Tween-80): 105 % of control and 106 % of control
- T/C [13]: 121 % of control

Structure (SMILES): O=C1C(N=Nc2ccc(Cl)cc2)Sc2nc3ccccc3n21 (stereo unspecified)
- T/C (dose: 60.0 mg/kg/injection, schedule: Q01DX005 (ip), vehicle: Klucel (hydroxypropylcellulose) (HPC)): 92 % of control
- T/C (dose: 120.0 mg/kg/injection, schedule: Q01DX005 (ip), vehicle: Klucel (hydroxypropylcellulose) (HPC)): 90 % of control

Structure (SMILES): CC(=O)Nc1ccc(S(=O)(=O)NCCSSCCNS(=O)(=O)c2ccc(NC(C)=O)cc2)cc1
- T/C [4]: 102 % of control
- T/C (dose: 100.0 mg/kg/injection, schedule: Q01DX009 (ip), vehicle: Klucel (hydroxypropylcellulose) (HPC)): 94 % of control
- T/C (dose: 200.0 mg/kg/injection, schedule: Q01DX009 (ip), vehicle: Klucel (hydroxypropylcellulose) (HPC)): 91 % of control

Structure (SMILES): COc1ccc(C2c3cc4c(cc3OC(C)(OC)C2C)OCO4)cc1 (stereo unspecified)
- T/C (dose: 6.25 mg/kg/injection, schedule: Q01DX005 (ip), vehicle: Klucel (hydroxypropylcellulose) (HPC)): 95 % of control
- T/C (dose: 12.5 mg/kg/injection, schedule: Q01DX005 (ip), vehicle: Klucel (hydroxypropylcellulose) (HPC)): 87 % of control
- T/C (dose: 25.0 mg/kg/injection, schedule: Q01DX005 (ip), vehicle: Klucel (hydroxypropylcellulose) (HPC)): 87 % of control

Structure (SMILES): COc1cc(CC2C(Cc3ccc4c(c3)OCO4)COC2CO)cc(OC)c1OC (stereo unspecified)
- T/C (dose: 6.25 mg/kg/injection, schedule: Q04DX002 (ip), vehicle: acetone): 95 % of control
- T/C (dose: 12.5 mg/kg/injection, schedule: Q04DX002 (ip), vehicle: acetone): 102 % of control
- T/C (dose: 25.0 mg/kg/injection, schedule: Q04DX002 (ip), vehicle: acetone): 98 % of control

Structure (SMILES): CCOc1ccc(/C=C/S(=O)(=O)/C=C\c2ccccc2)c(OC)c1
- T/C [13]: 98 % of control
- T/C [14]: 92 % of control
- T/C [15]: 87 % of control

Structure (SMILES): Oc1ccc2ccc3cccc4ccc1c2c34
- T/C [13]: 100 % of control
- T/C [14]: 100 % of control
- T/C [15]: 100 % of control

Structure (SMILES): O=C1C=Cn2cc(-c3ccccc3)c(-c3ccccc3)c21
- T/C [5]: 96 % of control
- T/C [6]: 97 % of control
- T/C [7]: 95 % of control

Structure (SMILES): O=C(O)C(=O)O.OO.OO.[O]=[V]
- T/C (dose: 0.94 mg/kg/injection, schedule: Q01DX005 (ip), vehicle: saline): 92 % of control
- T/C (dose: 3.75 mg/kg/injection, schedule: Q01DX005 (ip), vehicle: saline): 110 % of control
